Laboratory results: patent US6838467B2, “Dosing regimen” (Janssen Pharmaceutica N. V., priority 2000, dated 2005)

How the values were obtained:
Assay type in all cases: in vivo
[1] = test system: T24 H-ras transformed NIH3T3 cell tumors; assay: Tumor studies in nude mice: T24 H-ras tumors, oral compound 1
Source text: (§1) Cell Culture: CAPAN-2 human pancreatic carcinoma cells were purchased from the American Type Culture Collection (Rockville, Md.). Cells were maintained in McCoys 5A Medium supplemented with 10% fetal calf serum and penicillin-streptomycin. NIH 3T3 cells transfected with the activated T24 H-ras oncogene (T24 cells ) were obtained from, Janssen Research Foundation (For methods see Parada, L. F., Tabin, C. J., Shih, C., and Weinberg, R Human EJ bladder carcinoma oncogene is
homologue of Harvey sarcoma virus ras gene. Nature 297: 474-478, 1982.; Santos, E., Tronick, S. R., Aaronson, S. A., Pulciani, S., and Barbacid, M. T24 human bladder carcinoma oncogene is an activated form of the normal human homologue of BALB-and Harvey-MSV transforming genes. Nature 298: 343-347, 1982.) T24 cells were maintained as monolayer cultures in Dulbecco's Modified Eagle's Medium (DMEM) supplemented with 10% Nu-serum Type IV (Collaborative Biomedical Products, Bedford, Mass. and 40 μg/ml G418 (Geneticin®, GIBCO-BRL, Gaithersburg, Md.).
(§2) Animals: Female nu/nu immunodeficient nude mice (42 days old) were purchased from Charles River Laboratories (Wilmington, Mass.). Mice were housed five per cage in microisolator cages placed in laminar flow shelving to maintain sterility. All bedding, food, water and cages were autoclaved. Animals were handled within the sterile confines of a laminar flow cabinet. The mice were otherwise maintained under standard vivarium conditions. Tumor studies were conducted under a protocol approved by the Institutional Animal Care and Use Committee.
(§3) Tumor Studies In Nude Mice: Cells growing as monolayers in T150 tissue culture flasks were detached by trypsinization with 10 ml of 0.05% trypsin plus 0.53 mM EDTA per flask. Tumor cell suspensions were pooled and trypsin was inactivated by the addition of serum containing medium (10 ml per 40 ml of trypsin cell suspension). Cells were collected by centrifugation and resuspended in Hank's Balanced Salt Solution (HBSS) warmed to 37° C. A 1.0 ml portion of cell suspension was added to 20 ml of diluent and counted on a Coulter particle counter. The cell suspensions were recentrifuged and resuspended at a concentration of 1×10^6 cell per 0.10 ml of HBSS. Mice were inoculated with a single subcutaneous injection of 0.10 ml of tumor cell suspension in the inguinal region. Mice were housed five per cage with 15 mice assigned to each treatment group. Body weight and tumor size as determined by caliper measurements were measured weekly. The caliper measurements of length and width were multiplied to obtain tumor areas. At the end of study, mice were sacrificed by CO2 asphyxiation.
Three days after tumor inoculation, the five day treatment with (R)-6-[amino(4-chlorophenyl)(1-methyl-1H-imidazol-5yl)methyl]-4-(3-chlorophenyl)-1-methyl-2(1H)-quinolinone (compound 1) was initiated. Compound 1 was administered once daily by oral gavage in a 20% beta-cyclodextrin vehicle as a volume of 0.10 ml of solution per 10 gm body weight. Control groups received the same dosage volume of the 20% beta-cyclodextrin vehicle.
Compounds. Compound 1 was prepared for oral administration by dissolving the compound first as a 2× concentrated stock in 40% hydroxypropyl beta cyclodextrin (lot no. 051-071/1) in 0.1 N HCI. Compound 1 was dissolved by stirring vigorously approximately 30 minutes followed by sonication for 10 min. The compound 1 solutions were brought to a final concentration by diluting 1:1 with 0.1 N HCI. The final drug solutions were sterile filtered immediately and transferred to sterile tubes. Solutions were stored refrigerated and protected form light during the course of the study and sterility was maintained by opening solutions under sterile laminar flow conditions.

[2] = test system: CAPAN-2 human pancreatic tumors; assay: Tumor studies in nude mice: CAPAN-2 tumors, oral compound 1; conditions: for tumor growth, continuous schedule: continuous for 18 days, previous study
Source text: as §1, §2, §3
[…] […] Control groups received the same dosage volume of the 20% beta-cyclodextrin vehicle.
[…] […] […] […] The final drug solutions were sterile filtered immediately and transferred to sterile tubes. Solutions were stored refrigerated and protected form light during the course of the study and sterility was maintained by opening solutions under sterile laminar flow conditions.

[3] = test system: T24 H-ras transformed NIH3T3 cell tumors; assay: Tumor studies in nude mice: T24 H-ras tumors, oral compound 1; conditions: for duration of response (tumor suppressive effect): five-day dosing schedule
[4] = 50, 100 and 200 mg/kg, five-day schedule, day 17

## Cn1cncc1[C@@](N)(c1ccc(Cl)cc1)c1ccc2c(c1)c(-c1cccc(Cl)c1)cc(=O)n2C [compound 1, (R)-6-[amino(4-chlorophenyl)(1-methyl-1H-imidazol-5yl)methyl]-4-(3-chlorophenyl)-1-methyl-2(1H)-quinolinone]
[1]; 50 mg/kg, five-day dosing schedule
  duration of response (tumor suppressive effect): waned by day 14
[1]; 200 mg/kg once daily p.o. for five days (days 3-8 after tumor inoculation), day 17
  tumor size on day 17: small tumors
[1]; 200 mg/kg, five-day schedule, day 17
  reduction of final tumor weights: 90%
[1]; [4]
  reduction of tumor growth measured as final tumor area: Significant, dose-related reductions
  reduction of tumor growth measured as final tumor weights: Significant, dose-related reductions
[1]; additional 5-day treatment with 200 mg/kg starting on day 21
  tumor growth after additional 5-day treatment: again arrested but not as dramatically as in the initial treatment
[2]; 50 mg/kg twice daily (100 mg/kg total daily dose)
  tumor growth, continuous schedule: significant reductions of tumor growth
[2]; 100 mg/kg twice daily (200 mg/kg daily dose)
  tumor growth, continuous schedule: significant reductions of tumor growth
[2]; 200 mg/kg for five days, no further treatment
  tumor growth after day 24 without further treatment: returned to the growth rate observed for vehicle treated controls
[2]; 200 mg/kg p.o. once daily for five days, started three days after inoculation
  growth of CAPAN-2 tumors: significantly reduced the growth of CAPAN-2 tumors out to day 24
[2]; additional five-day treatment on days 21 to 25, significant on day 28
  tumor growth after additional five-day treatment: transient growth arrest
[3]; 100 mg/kg
  duration of response (tumor suppressive effect): waned by day 14
[3]; 200 mg dose
  duration of response (tumor suppressive effect): sustained effects out to day 17
[3]; 200 mg/kg once daily p.o. for five days, no further treatment
  day by which tumors left untreated returned to rapid control growth rates: ≤ 24 days
[3]; single 200 mg/kg dose three days after tumor inoculation
  duration of sustained inhibition of tumor growth: 15 days
[3]; single 400 mg/kg dose three days after tumor inoculation
  duration of sustained inhibition of tumor growth: 15 days
